Experimental findings from the NIST ThermoML archive (doi:10.1007/s10765-017-2323-6) are described below.

Each structure is given as a SMILES string. ± gives the expanded uncertainty stated by the source.

The conditions of data set [1]: Crystal; DTA.
A short description of data set [2]: Molar enthalpy of transition or fusion. The settings on record: Crystal; DSC.

Turning to `CC(=O)CCc1ccc(O)cc1` [4-(4-hydroxyphenyl)butan-2-one], the Normal melting temperature in data set [1] is 82 ± 0.6 °C. For the same compound, in data set [2], the “Molar enthalpy of transition or fusion” value came to 5.9 ± 0.143 kcal/mol.
